Results: paper PMC8196580, “Identification of Kaurane-Type Diterpenes as Inhibitors of Leishmania Pteridine Reductase I” (Molecules, 2021)
Read-outs that look alike come from different tables or passages of the source.

Legend:
L. major [1] = system: L. major; set-up: method as in ChEMBL; conditions: ref ChEMBL, cited from earlier work
L. major [2] = assay: ChEMBL dataset of pIC50 values against L. major used for the RF model (Table S1); assay type: cell-based, Leishmania major; note: call rule not given here
[3] = ChemBL structures with pIC50 values used for Random forest model construction (Table S1)
[4] = Active/Inactive class assigned to ChemBL structures for Random forest model construction (Table S1)
[5] = ChemBL structures with pIC50 values used for Random forest model construction, L. major
[6] = Active/Inactive class assigned to the ChEMBL pIC50 value for Random forest model construction, ref ChEMBL

Compound	pIC50 Value (L. major [1]; [3])	Outcome (L. major [2]; [4])	pIC50 Value (L. major [1]; [5])	Outcome (L. major [2]; [6])
O=C(/C=C/c1ccc(-n2ccnc2)cc1)c1ccc(Br)cc1 [CHEMBL570693]	5.61	Active		
O=C(/C=C/c1ccc(-n2ccnc2)cc1)c1ccc(Cl)c(Cl)c1 [CHEMBL570738]	5.54	Active		
O=C(/C=C/c1ccc(-n2ccnc2)cc1)c1cc(Cl)ccc1Cl [CHEMBL570739]	5.54	Active		
O=C(/C=C/c1ccc(-n2ccnc2)cc1)c1ccc(Cl)cc1Cl [CHEMBL570849]	5.68	Active		
O=C(/C=C/c1ccc(-n2ccnc2)cc1)c1cccc(F)c1F [CHEMBL570959]	5.57	Active		
O=C(/C=C/c1ccc(-n2ccnc2)cc1)c1c(F)cccc1F [CHEMBL570962]	5.51	Active		
O=C(/C=C/c1ccc(-n2ccnc2)cc1)c1c(Cl)cccc1Cl [CHEMBL571070]	5.71	Active		
O=C(/C=C/c1ccc(-n2ccnc2)cc1)c1ccccc1F [CHEMBL571071]	5.47	Active		
O=C(/C=C/c1ccc(-n2ccnc2)cc1)c1ccccc1 [CHEMBL571178]	5.48	Active		
O=C(/C=C/c1ccc(-n2ccnc2)cc1)c1cccc(O)c1 [CHEMBL571179]	5.48	Active		
O=C(/C=C/c1ccc(-n2ccnc2)cc1)c1ccc(Cl)c(Cl)c1Cl [CHEMBL571575]	5.78	Active		
CC[C@H](CO)Nc1nc(NCc2ccccc2O)c2ncn(C(C)C)c2n1 [CHEMBL1094304]			4.33	Inactive
COc1cc(C(=O)/C=C/C2=Cc3cc(Cl)ccc3OC2)cc(OC)c1OC [CHEMBL1094315]	5.69	Active		
O=C(/C=C/c1ccccc1Br)C1=Cc2cc(Cl)ccc2OC1 [CHEMBL1094316]	5.88	Active		
Cc1ccc(/C=C/C(=O)C2=Cc3cc(Cl)ccc3OC2)cc1 [CHEMBL1094967]	5.56	Active		
COc1ccc(OC)c(/C=C/C(=O)C2=Cc3cc(Cl)ccc3OC2)c1 [CHEMBL1095286]	5.52	Active		
COc1cccc(/C=C/C(=O)C2=Cc3cc(Cl)ccc3OC2)c1OC [CHEMBL1095287]	5.55	Active		
O=C(/C=C/C1=Cc2cc(Cl)ccc2OC1)c1ccccc1F [CHEMBL1097964]	5.65	Active		
O=C(/C=C/C1=Cc2cc(Cl)ccc2OC1)c1ccccc1Cl [CHEMBL1097965]	5.91	Active		
O=C(/C=C/C1=Cc2cc(Cl)ccc2OC1)c1ccc(Cl)cc1Cl [CHEMBL1097966]	5.72	Active		
O=[N+]([O-])c1ccc2nc(-c3ccccc3)[nH]c2c1 [CHEMBL1164403]	5.48	Active		
O=CN/N=C/c1ccccc1O [CHEMBL1172261]			3.84	Inactive
C[C@]12CC[C@H](O)C[C@@H]1CC[C@@H]1[C@@H]2CC[C@@]2(C)[C@H]1CC[C@@H]2[C@@](C)(O)c1ccncc1 [CHEMBL1214241]			4.92	Inactive
C[C@]12CC[C@H](O)C[C@@H]1CC[C@@H]1[C@@H]2CC[C@@]2(C)[C@H]1CC[C@@H]2[C@@](C)(O)c1ccncc1Cl [CHEMBL1214242]			5.10	Active

Compound	pIC50 Value (L. major [1]; [3])	Outcome (L. major [2]; [4])	pIC50 Value (L. major [1]; [5])	Outcome (L. major [2]; [6])
CCC(=O)N1CCCCC1[C@](C)(O)[C@H]1CC[C@H]2[C@@H]3CC[C@H]4C[C@@H](O)CC[C@]4(C)[C@H]3CC[C@@]21C (stereo partly drawn) [CHEMBL1214310]			4.27	Inactive
C[C@]12CC[C@H](O)C[C@@H]1CC[C@@H]1[C@@H]2CC[C@@]2(C)[C@H]1CC[C@@H]2[C@@](C)(O)c1ccccn1 [CHEMBL1214311]			4.00	Inactive
C[C@]12CC[C@H](O)C[C@@H]1CC[C@@H]1[C@@H]2CC[C@@]2(C)[C@H]1CC[C@@H]2[C@@](C)(O)c1cccnc1 [CHEMBL1214312]			4.00	Inactive
CN1CCN(c2ccnc3cc(Cl)ccc23)CC1 [CHEMBL1255667]			4.00	Inactive
c1ccc2c(-c3cnc4n3CCS4)c[nH]c2c1 [CHEMBL1255759]			4.11	Inactive
CCc1nnc(N2C(=O)C3C4C=CC(C4)C3C2=O)s1 (stereo not drawn) [CHEMBL1255760]			4.00	Inactive
Cc1ccc2c(n1)[nH]c1ccccc12 [CHEMBL1255761]			4.01	Inactive
CCOC(=O)C/C(=N/O)c1nnn[nH]1 [CHEMBL1255762]			4.00	Inactive
Cc1ccc2nc(CCC3CCCCC3)[nH]c2c1 [CHEMBL1255797]			4.63	Inactive
COc1ccc2c(=O)c(C(=O)O)csc2c1 [CHEMBL1255798]			4.00	Inactive
Cc1ccc(C(=O)N2CCN(c3ccnc4cc(Cl)ccc34)CC2)cc1 [CHEMBL1256729]			4.15	Inactive
CC(C)(C)c1ccc(CN2CCN(c3ccnc4cc(Cl)ccc34)CC2)cc1 [CHEMBL1256730]			4.21	Inactive
Clc1ccc2c(N3CCN(Cc4ccccc4)CC3)ccnc2c1 [CHEMBL1256765]			4.21	Inactive
Clc1ccc2c(N3CCN(Cc4ccc(-c5ccccc5)cc4)CC3)ccnc2c1 [CHEMBL1256766]			4.49	Inactive
COc1ccc(-c2nnc3sc(-c4ccc(F)cc4)nn23)cc1 [CHEMBL1256800]			4.00	Inactive
Clc1ccc(C2=NN3C(c4ccccc4)=NNC3S2)c(Cl)c1 (stereo not drawn) [CHEMBL1256801]			4.00	Inactive
Cc1ccccc1Cc1nnc2sc(-c3ccc(Cl)cc3)nn12 [CHEMBL1256802]			4.00	Inactive
CCCc1cc(-c2nn3c(-c4ccccc4)nnc3s2)n(CC)n1 [CHEMBL1256824]			4.00	Inactive
Fc1cccc(Cl)c1Cc1nn2c(-c3ccccc3)nnc2s1 [CHEMBL1256825]			4.00	Inactive
CCn1nc(C)cc1-c1nnc2sc(-c3ccc(C)cc3)nn12 [CHEMBL1256826]			4.05	Inactive
Cc1cc(C)nc(SCc2nn3c(-c4ccccc4)nnc3s2)n1 [CHEMBL1256856]			4.00	Inactive
CCn1nc(C)cc1-c1nnc2sc(Cc3c(F)cccc3Cl)nn12 [CHEMBL1256857]			4.00	Inactive
Cc1ccc(/C=C2/C(=O)NN(c3ccc(F)cc3)C2=O)o1 [CHEMBL1256858]			4.04	Inactive
Cc1ccc(N2NC(=O)/C(=C/c3cc4c(cc3Cl)OCO4)C2=O)cc1C [CHEMBL1256889]			4.52	Inactive
